From patent US7994185B2, “Benzene sulfonamide thiazole and oxazole compounds” (Glaxo Smith Kline LLC, priority 2008, dated 2011)
pIC50: −log10 of the molar value. Like-named read-outs stand apart in the source and are kept apart here.

What was measured:
[1] = target: T1, BRAFV600E full-length (amino acids 2-766) (Homo sapiens, UniProt P15056, V600E); test: B-Raf Accelerated MEK ATPase assay (BRAMA); format: biochemical; conditions: categorized; for IC50: Table 1b, read-out: B-Raf pIC50 (converted)
T1 construct: His6-tagged BRAFV600E full-length (amino acids 2-766); His6; made in house; host or cells: baculovirus expression system (insect cells)
T1 sequence (P15056 2-766 V600E): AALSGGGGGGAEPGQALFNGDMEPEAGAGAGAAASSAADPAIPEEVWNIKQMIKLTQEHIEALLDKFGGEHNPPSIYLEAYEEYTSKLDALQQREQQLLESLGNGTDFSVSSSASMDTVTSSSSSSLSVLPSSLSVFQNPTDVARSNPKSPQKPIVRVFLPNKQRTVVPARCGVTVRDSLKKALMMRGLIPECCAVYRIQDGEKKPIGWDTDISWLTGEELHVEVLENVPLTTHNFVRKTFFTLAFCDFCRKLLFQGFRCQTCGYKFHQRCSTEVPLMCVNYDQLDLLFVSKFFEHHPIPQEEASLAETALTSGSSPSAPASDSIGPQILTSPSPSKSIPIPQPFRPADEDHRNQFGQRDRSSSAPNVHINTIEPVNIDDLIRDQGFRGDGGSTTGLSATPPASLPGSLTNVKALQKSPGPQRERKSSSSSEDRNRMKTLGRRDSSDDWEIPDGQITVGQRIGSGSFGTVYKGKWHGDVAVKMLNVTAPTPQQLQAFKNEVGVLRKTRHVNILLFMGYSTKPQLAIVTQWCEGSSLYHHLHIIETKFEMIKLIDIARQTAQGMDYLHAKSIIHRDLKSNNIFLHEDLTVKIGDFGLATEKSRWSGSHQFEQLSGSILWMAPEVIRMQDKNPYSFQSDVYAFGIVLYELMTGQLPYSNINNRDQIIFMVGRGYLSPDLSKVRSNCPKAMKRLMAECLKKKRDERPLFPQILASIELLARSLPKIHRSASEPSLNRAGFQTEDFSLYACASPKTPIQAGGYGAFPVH
Outline: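 Coupled-enzyme readout: ADP generated by MEK-mediated ATP hydrolysis, uncoupled from ERK phosphorylation, is linked to NADH oxidation through pyruvate kinase and lactate dehydrogenase.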

[2] = test system: Human melanoma cancer cells (SK-MEL-28); test: Cell growth inhibition assay (CellTiter-Glo), SK-MEL-28; format: cell-based
[3] = test system: Human colon tumor cells (Colo205); test: Cell growth inhibition assay (CellTiter-Glo), Colo205; format: cell-based
Outline: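 Colo205 (and SK-MEL-28) cells in RPMI with 10% FBS were exposed to 10-point 1:3 serial dilutions of compound at 0.2% final DMSO for 3 days at 37 °C. Total ATP, a surrogate for cell number, was read by CellTiter-Glo luminescence, with % growth inhibition relative to DMSO-treated wells.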

[4] = B-Raf pIC50, Table 1b, later runs, average pIC50 for the one or more runs
[5] = SK-MEL-28, Table 3b, later runs, average for the one or more runs, categorized, read-out: IC50 for SK-MEL-28
[6] = COLO 205, Table 2b, later runs, average for the one or more runs, categorized, read-out: IC50 for Colo205
[7] = B-Raf Activity, Table 1a, highest pIC50 for the one or more runs
[8] = SK-MEL-28, 72 h, Table 3a, 3 days incubation, read-out: Activity in SK-MEL-28 Tumor Cells
[9] = COLO 205, 72 h, Table 2a, 3 days incubation, read-out: Activity in Colo205 Tumor Cells
[10] = later runs, average pIC50 for the one or more runs

Row | SMILES | pIC50 [1, 4] | pIC50 [2, 5] | pIC50 [3, 6] | pIC50 [1, 7] | pIC50 [2, 8] | pIC50 [3, 9] | IC50 [1, 10] [µM]
1 | CCOC(=O)CCc1nccc(-c2sc(C(C)(C)C)nc2-c2cccc(NS(=O)(=O)c3c(F)cccc3F)c2F)n1 [Example 226, ethyl 3-{4-[4-(3-{[(2,6-difluorophenyl)sulfonyl]amino}-2-fluorophenyl)-2-(1,1-dimethylethyl)-1,3-thiazol-5-yl]-2-pyrimidinyl}propanoate] | ≥ 8.50 | > 7.00 | > 7.00 |  |  |  | 
2 | CC(C)c1nc(-c2ccc(F)c(NS(=O)(=O)c3cc(F)ccc3F)c2)c(-c2ccnc(NC3CC(C)(C)N(C)C(C)(C)C3)n2)s1 [Example 132] | ≥ 8.50 | 6.00 to 7.00 | 6.00 to 7.00 | > 7.00 | 6.00 to 7.00 | 6.00 to 7.00 | 
3 | CC(C)c1nc(-c2ccc(F)c(NS(=O)(=O)c3c(F)cccc3F)c2)c(-c2ccnc(N[C@H]3CC[C@H](NS(C)(=O)=O)CC3)n2)s1 [Example 141] |  | > 7.00 | > 7.00 | > 7.00 | > 7.00 | > 7.00 | 0.00316 to 0.0316
4 | Nc1nccc(-c2sc(N3CCOCC3)nc2-c2cccc(NS(=O)(=O)c3ccoc3)c2F)n1 [Example 267, N-{3-[5-(2-amino-4-pyrimidinyl)-2-(4-morpholinyl)-1,3-thiazol-4-yl]-2-fluorophenyl}-3-furansulfonamide] | ≥ 8.50 | 6.00 to 7.00 | 6.00 to 7.00 |  |  |  | 
5 | CC(C)(C)c1nc(-c2cccc(NS(=O)(=O)c3cc(F)ccc3F)c2F)c(-c2ccnc(NC3CCOCC3)n2)s1 [Example 138] | ≥ 8.50 | > 7.00 | > 7.00 | > 7.00 | < 6.00 | > 7.00 | 
6 | CC(C)(C)c1nc(-c2cccc(NS(=O)(=O)c3cc(F)ccc3F)c2F)c(-c2ccnc(NCCN3CCCC3=O)n2)s1 [Example 97, N-{3-[2-(1,1-Dimethylethyl)-5-(2-{[2-(2-oxo-1-pyrrolidinyl)ethyl]amino}-4-pyrimidinyl)-1,3-thiazol-4-yl]-2-fluorophenyl}-2,5-difluorobenzenesulfonamide] | ≥ 8.50 | > 7.00 | 6.00 to 7.00 | > 7.00 | > 7.00 | > 7.00 | 
7 | CS(=O)(=O)N1CCC(Nc2nccc(-c3sc(C4CCC4)nc3-c3cccc(NS(=O)(=O)c4cc(F)ccc4F)c3F)n2)CC1 [Example 81, N-{3-[2-Cyclobutyl-5-(2-{[1-(methylsulfonyl)-4-piperidinyl]amino}-4-pyrimidinyl)-1,3-thiazol-4-yl]-2-fluorophenyl}-2,5-difluorobenzenesulfonamide] | ≥ 8.50 | > 7.00 | > 7.00 | > 7.00 | > 7.00 | > 7.00 | 
8 | CC(C)c1nc(-c2ccc(F)c(NS(=O)(=O)c3ccccc3F)c2)c(-c2ccnc(N[C@H]3CC[C@H](NS(C)(=O)=O)CC3)n2)s1 [Example 140] |  | > 7.00 | > 7.00 | > 7.00 | > 7.00 | > 7.00 | 0.00316 to 0.0316
9 | CC(C)(C)c1nc(-c2cccc(NS(=O)(=O)c3ccccc3F)c2F)c(-c2ccnc(N)n2)s1 [Example 54, N-{3-[5-(2-Amino-4-pyrimidinyl)-2-(1,1-dimethylethyl)-1,3-thiazol-4-yl]-2-fluorophenyl}-2-fluorobenzenesulfonamide] | ≥ 8.50 | > 7.00 | > 7.00 | > 7.00 | > 7.00 | > 7.00 | 
10 | Nc1nccc(-c2sc(N3CCOCC3)nc2-c2cccc(NS(=O)(=O)N3CCCCC3)c2F)n1 [Example 49, N-{3-[5-(2-Amino-4-pyrimidinyl)-2-(4-morpholinyl)-1,3-thiazol-4-yl]-2-fluorophenyl}-1-piperidinesulfonamide] | 6.00 to 7.50 | 6.00 to 7.00 | 6.00 to 7.00 | 6.00 to 7.00 | 6.00 to 7.00 | 6.00 to 7.00 | 
11 | Nc1nccc(-c2sc(N3CCOCC3)nc2-c2cccc(NS(=O)(=O)c3cccnc3)c2F)n1 [Example 61, N-{3-[5-(2-Amino-4-pyrimidinyl)-2-(4-morpholinyl)-1,3-thiazol-4-yl]-2-fluorophenyl}-3-pyridinesulfonamide] | ≥ 8.50 | 6.00 to 7.00 | 6.00 to 7.00 | > 7.00 | 6.00 to 7.00 | 6.00 to 7.00 | 
12 | CC(C)(C)c1nc(-c2cccc(NS(=O)(=O)c3cc(F)ccc3F)c2F)c(-c2ccnc(CCN3CCS(=O)(=O)CC3)n2)s1 [Example 216] |  | > 7.00 | > 7.00 | > 7.00 |  |  | 0.00316 to 0.0316
13 | Nc1nccc(-c2sc(C3CCCCC3)nc2-c2cccc(NS(=O)(=O)c3cc(F)ccc3F)c2F)n1 [Example 144] | ≥ 8.50 | > 7.00 | > 7.00 | > 7.00 | > 7.00 | > 7.00 | 
